Laboratory results from ChEMBL document CHEMBL5649166, “RIP3 induces apoptosis independent of pronecrotic kinase activity” (Mol Cell, 2014).
Active and inactive are the calls of the source.

How the values were obtained:
[1] = target: Serine/threonine-protein kinase tousled-like 2 (Homo sapiens) (UniProt Q86UE8); assay: Inhibition of human TLK2 using casein as substrate at 1 uM in presence of 32P-ATP by Hotspot assay relative to control; values are per cent of control
[2] = target: Serine/threonine-protein kinase 38 (Homo sapiens) (UniProt Q15208); assay: Inhibition of human STK38/NDR1 using KKRNRRLSVA as substrate at 1 uM in presence of 32P-ATP by Hotspot assay relative to control; values are per cent of control
L929 [3] = assay: Inhibition of TLR-3 induced necroptosis in mouse L929 cells assessed as increase in cell viability at higher concentration incubated for 18 hrs in presence of poly(I:C) by Cell Titer-Glo luminescent cell viability assay; type: functional, cell-based
L929 [4] = assay: Inhibition of TLR-3 induced necroptosis in mouse L929 cells assessed as increase in cell viability upto 10 uM incubated for 18 hrs in presence of poly(I:C) and zVAD by Cell Titer-Glo luminescent cell viability assay; type: functional, cell-based
SVEC4-10 [5] = assay: Inhibition of DAI-induced necroptosis in MCMV M45mutRHIM infected mouse SVEC4-10 cells assessed as increase in cell viability at 10 uM incubated for 18 hrs by Cell Titer-Glo luminescent cell viability assay; type: functional, cell-based
SVEC4-10 [6] = assay: Inhibition of DAI-induced necroptosis in wildtype MCMV infected mouse SVEC4-10 cells assessed as increase in cell viability at 10 uM incubated for 18 hrs in presence of zVAD by Cell Titer-Glo luminescent cell viability assay; type: functional, cell-based
3T3SA [7] = assay: Inhibition of TNF-alpha induced necroptosis in mouse 3T3SA cells at 10 uM incubated for 18 hrs in presence of zVAD by SYTOX green uptake assay; type: functional, cell-based
3T3SA [8] = assay: Induction of apoptosis in mouse 3T3SA cells assessed as increase in caspase3/7 proteolytic activity incubated for 2.5 hrs; type: toxicity, cell-based
3T3SA [9] = assay: Induction of apoptosis in mouse 3T3SA cells assessed as accumulation of cleaved caspase-3 by measuring percentage of cleaved caspase-3 positive cells measured after 2.5 hrs in presence of zVAD by immunoblot analysis (reference value: 4%); type: toxicity, cell-based
3T3SA [10] = assay: Induction of apoptosis in mouse 3T3SA cells transfected with RIP3 shRNA assessed as accumulation of cleaved caspase-3 by measuring percentage of cleaved caspase-3 positive cells measured after 8 hrs by immunoblot analysis (reference value: 11%); type: toxicity, cell-based
NIH3T3 = assay: Induction of apoptosis in mouse NIH/3T3 cells expressing low level of […] at 1 to 10 uM incubated for 18 hrs by Cell Titer-Glo luminescent cell viability assay; type: toxicity, cell-based; conditions: nih3t3, 18 h, dose 1-10 µM
3T3SA [11] = assay: Induction of apoptosis in mouse 3T3SA cells transfected with RIP3 shRNA at 10 uM incubated for 18 hrs by Cell Titer-Glo luminescent cell viability assay; type: toxicity, cell-based
MEF [12] = assay: Induction of apoptosis in RIP3-/- MEF cells incubated for 18 hrs by Cell Titer-Glo luminescent cell viability assay; type: toxicity, cell-based; conditions: mouse
3T3SA [13] = assay: Induction of apoptosis in mouse 3T3SA cells incubated for 18 hrs in presence of zIETD by Cell Titer-Glo luminescent cell viability assay; type: toxicity, cell-based
3T3SA [14] = assay: Induction of apoptosis in mouse 3T3SA cells incubated for 18 hrs in presence of zLEHD by Cell Titer-Glo luminescent cell viability assay; type: toxicity, cell-based
3T3SA [15] = assay: Induction of apoptosis in mouse 3T3SA cells incubated for 18 hrs in presence of 3-MA by Cell Titer-Glo luminescent cell viability assay; type: toxicity, cell-based
3T3SA [16] = assay: Induction of apoptosis in mouse 3T3SA cells assessed as increase in caspase 8 proteolytic activity incubated for 2.5 hrs; type: toxicity, cell-based
3T3SA [17] = assay: Induction of apoptosis in mouse 3T3SA cells assessed as cleaved caspase 8 accumulation incubated for 2.5 hrs by immunoblot analysis; type: toxicity, cell-based
3T3SA [18] = assay: Induction of apoptosis in mouse 3T3SA cells transfected with Caspase8 siRNA incubated for 2.5 hrs by Cell Titer-Glo luminescent cell viability assay; type: toxicity, cell-based
3T3SA [19] = assay: Induction of apoptosis in mouse 3T3SA cells incubated for 18 hrs in presence of Nec-1 by Cell Titer-Glo luminescent cell viability assay; type: toxicity, cell-based
MEF [20] = assay: Induction of apoptosis in MEF cells expressing RIP1 K45A/K45A mutant incubated for 18 hrs by Cell Titer-Glo luminescent cell viability assay; type: toxicity, cell-based; conditions: mouse
3T3SA [21] = assay: Inhibition of necroptosis in mouse 3T3SA cells incubated for 18 hrs in presence of Nec-1 by Cell Titer-Glo luminescent cell viability assay; type: functional, cell-based
SVEC4-10 [22] = assay: Induction of apoptosis in mouse SVEC4-10 cells transfected with M45mutRHIM incubated for 18 hrs by Cell Titer-Glo luminescent cell viability assay; type: toxicity, cell-based; conditions: svec4-10, 18 h
3T3SA [23] = assay: Induction of apoptosis in mouse 3T3SA cells incubated for 18 hrs in presence of BMS-345541 by Cell Titer-Glo luminescent cell viability assay; type: toxicity, cell-based
3T3SA [24] = assay: Induction of apoptosis in RIP3shRNA transfected mouse 3T3SA cells co-transfected with shRNA-resistant RIP3 pre-tranfected for 16 hrs followed by compound addition and measured after 18 hrs in presence of zVAD by Cell Titer-Glo luminescent cell viability assay; type: toxicity, cell-based
3T3SA [25] = assay: Induction of apoptosis in RIP3shRNA transfected mouse 3T3SA cells co-transfected with shRNA-resistant RIP3 K51A mutant pre-tranfected for 16 hrs followed by compound addition and measured after 18 hrs in presence of zVAD by Cell Titer-Glo luminescent cell viability assay; type: toxicity, cell-based
3T3SA [26] = assay: Induction of apoptosis in RIP3shRNA transfected mouse 3T3SA cells co-transfected with shRNA-resistant RIP3 D161N mutant pre-tranfected for 16 hrs followed by compound addition and measured after 18 hrs in presence of zVAD by Cell Titer-Glo luminescent cell viability assay; type: toxicity, cell-based
3T3SA [27] = assay: Induction of apoptosis in RIP3shRNA transfected mouse 3T3SA cells co-transfected with shRNA-resistant RIP3 T257A mutant pre-tranfected for 16 hrs followed by compound addition and measured after 18 hrs in presence of zVAD by Cell Titer-Glo luminescent cell viability assay; type: toxicity, cell-based
3T3SA [28] = assay: Induction of apoptosis in vICA expression plasmid transfected mouse 3T3SA cells co-transfected with shRNA-resistant RIP3 D143N mutant incubated for 12 hrs by Cell Titer-Glo luminescent cell viability assay; type: toxicity, cell-based
3T3SA [29] = assay: Induction of apoptosis in vICA expression plasmid transfected mouse 3T3SA cells co-transfected with shRNA-resistant RIP3 mutRHIM incubated for 12 hrs by Cell Titer-Glo luminescent cell viability assay; type: toxicity, cell-based
MEF [30] = assay: Induction of apoptosis in RIP3-/- MEF cells expressing dox-induced RIP3 K51A mutant assessed as RIP1-FADD association incubated for 1 hrs by immunoblot analysis; type: toxicity, cell-based; conditions: mouse
3T3SA [31] = assay: Induction of apoptosis in RIP3 shRNA transfected mouse 3T3SA cells co-transfected with shRNA resistant RIP3 D161G mutant assessed as accumulation of FLAG-tagged RIP3 D161G mutant in pellet incubated for 3 hrs in presence of zVAD by immunoblot analysis; type: toxicity, cell-based
BMDM = assay: Induction of apoptosis in mouse BMDM cells expressing wildtype RIP3 incubated for 18 hrs by Cell Titer-Glo luminescent cell viability assay; type: toxicity, cell-based

Serine/threonine-protein kinase tousled-like 2 (Homo sapiens), sequence (Q86UE8 whole entry, looked up): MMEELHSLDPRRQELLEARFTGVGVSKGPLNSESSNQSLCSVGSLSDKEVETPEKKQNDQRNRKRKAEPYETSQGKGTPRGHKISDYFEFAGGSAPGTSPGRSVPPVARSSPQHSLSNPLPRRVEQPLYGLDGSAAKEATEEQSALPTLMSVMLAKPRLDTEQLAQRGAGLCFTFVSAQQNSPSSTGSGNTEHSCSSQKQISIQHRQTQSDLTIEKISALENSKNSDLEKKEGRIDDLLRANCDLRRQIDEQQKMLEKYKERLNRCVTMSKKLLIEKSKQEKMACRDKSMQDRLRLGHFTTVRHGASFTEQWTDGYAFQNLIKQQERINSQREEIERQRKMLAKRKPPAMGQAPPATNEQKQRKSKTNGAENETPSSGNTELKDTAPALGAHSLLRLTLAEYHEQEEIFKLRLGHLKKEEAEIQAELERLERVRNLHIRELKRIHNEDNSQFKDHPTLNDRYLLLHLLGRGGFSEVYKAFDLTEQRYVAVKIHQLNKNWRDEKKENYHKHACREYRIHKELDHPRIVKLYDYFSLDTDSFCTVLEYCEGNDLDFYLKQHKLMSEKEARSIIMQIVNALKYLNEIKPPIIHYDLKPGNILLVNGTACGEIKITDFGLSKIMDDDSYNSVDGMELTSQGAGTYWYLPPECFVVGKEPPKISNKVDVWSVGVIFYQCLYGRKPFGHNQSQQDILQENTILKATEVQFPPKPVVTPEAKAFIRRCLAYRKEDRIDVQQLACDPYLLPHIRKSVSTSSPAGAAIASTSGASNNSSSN
Serine/threonine-protein kinase 38 (Homo sapiens), sequence (Q15208 2-465 limits assumed): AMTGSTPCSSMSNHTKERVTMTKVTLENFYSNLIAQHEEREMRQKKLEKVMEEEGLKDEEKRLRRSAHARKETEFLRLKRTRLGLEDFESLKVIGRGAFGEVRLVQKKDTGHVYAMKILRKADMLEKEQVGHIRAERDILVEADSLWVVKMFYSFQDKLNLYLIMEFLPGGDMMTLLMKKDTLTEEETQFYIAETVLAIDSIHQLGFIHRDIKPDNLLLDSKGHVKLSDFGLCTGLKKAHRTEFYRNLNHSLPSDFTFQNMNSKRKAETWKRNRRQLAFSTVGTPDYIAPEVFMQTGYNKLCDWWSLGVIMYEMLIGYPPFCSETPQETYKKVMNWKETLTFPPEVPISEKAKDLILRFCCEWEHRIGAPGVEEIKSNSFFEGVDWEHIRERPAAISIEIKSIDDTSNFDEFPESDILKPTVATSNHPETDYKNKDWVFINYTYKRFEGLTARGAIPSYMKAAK

CNC(=O)c1ccc2c(c1)ncn2-c1ccc(CC(=O)OC(C)(C)C)cc1
94.4%: residual activity [1]
96.4%: residual activity [2]

CC(C)S(=O)(=O)c1ccc2nccc(Nc3ccc4scnc4c3)c2c1
Non-Toxic: Activity (NIH3T3) | Activity (3T3SA [11]) | Activity (MEF [12]) | Activity (3T3SA [13]) | Activity (3T3SA [18]) | Activity (3T3SA [19]) | Activity (MEF [20]) | Activity (3T3SA [24]) | Activity (3T3SA [25]) | Activity (3T3SA [26]) | Activity (3T3SA [27]) | Activity (3T3SA [28]) | Activity (3T3SA [29])
12.1%: Activity (3T3SA [10])
active: inhibition (L929 [4]) | inhibition (SVEC4-10 [6]) | Activity (3T3SA [7]) | inhibition (3T3SA [21])
Toxic: Activity (3T3SA [8]) | Activity (3T3SA [14]) | Activity (3T3SA [15]) | Activity (3T3SA [16]) | Activity (3T3SA [17]) | Activity (SVEC4-10 [22]) | Activity (3T3SA [23]) | Activity (MEF [30]) | Activity (3T3SA [31]) | Activity (BMDM)
inactive: inhibition (L929 [3]) | inhibition (SVEC4-10 [5])
3%: Activity (3T3SA [9])
